Data as given in patent US5501850A, “Use of benzimidazole derivatives as light protection filters” (Merck Patent Gesellschaft mit beschrankter Haftung, priority 1992, dated 1996).
≈ marks a conversion by molar mass, not a printed value. Where two headings read alike, the source gives them in different places.

How the values were obtained:
[1] = 280-320 nm; cited from earlier work
[2] = cited from earlier work
[3] = UV spectra measured in a UV spectrometer (Perkin-Elmer), path length one centimeter; format: physicochemical; conditions: ethanol, c=1 mg/100 ml
Experimental: The UV spectra were measured in a UV spectrometer from Perkin-Elmer at a path length of one centimeter.

Solubility = format: physicochemical; conditions: organic solvent or mixture

E at λmax1 [3]	E at λmax2 [3]	λmax1 [3]	λmax2 [3]	Compound	also measured
				O=S(=O)(O)c1ccc2[nH]c(-c3ccccc3)nc2c1 [EUSOLEX® 232]	filter quality in the UVB range [1]: good filters
				Cc1ccc(C=C2C(=O)C3(C)CCC2C3(C)C)cc1 (stereo not shown) [EUSOLEX® 6300]	filter quality in the UVB range [1]: good filters
				CC(C)c1ccc(C(=O)CC(=O)c2ccccc2)cc1 [EUSOLEX® 8020]	stability when exposed to UV irradiation [2]: do not have an unlimited stability
0.34	0.30	303 nm	328 nm	CCCCC(CC)COc1ccc(OCC(CC)CCCC)c(-c2nc3ccccc3[nH]2)c1 (stereo not shown) [Example 1, 2-2',5'-Di(2-ethylhexyloxy)phenyl!benzimidazole]	
0.51	0.45	297 nm	308 nm	CCCCC(CC)COc1c(OC)ccc(-c2nc3ccccc3[nH]2)c1OC (stereo not shown) [Example 2]	solubility (Solubility; isopropanol, read-out: Solubility in Isopropanol): 640 mg/mL (≈ 1670 mM); solubility (Solubility; miglyol, read-out: Solubility in Miglyol): 590 mg/mL (≈ 1540 mM); solubility (Solubility; paraffin, read-out: Solubility in Paraffin): 57 mg/mL (≈ 149 mM)
0.76	0.42	309 nm	323 nm	COc1ccc(-c2nc3ccccc3[nH]2)c(OC)c1OC [Example 2a, 2-(2',3',4'-Trimethoxy)phenylbenzimidazole]	
				COc1ccc(C(=O)CC(=O)c2ccc(C(C)(C)C)cc2)cc1 [PARSOL® 1789]	stability when exposed to UV irradiation [2]: do not have an unlimited stability
